EP0120757A1, “Compositions in the form of microglobules consisting of partially quaternised, tertiary polyamines, and containing hydrophobic compounds, their preparation and application” (Etablissement Public dit: CENTRE NATIONAL DE LA RECHERCHE …, priority 1983, dated 1984)
Values after ≈ are worked out from the molar mass of the structure shown.

Assays:
[1] = Solubilisation of griseofulvine in aqueous Q-P(TDAE)19 microglobule solution, assayed by circular dichroism at 294 nm after filtration; format: physicochemical; conditions: Example 5, Q-P(TDAE)19 TN = 2,5 x 10^-2 N, per ml of filtrate
Protocol: Les essais sont effectués à partir d'une solution basique de Q-P(TDAE)19 (TN= 2,5 x 10^-2 N). Des échantillons contenant 5ml de cette solution basique sont ajustés aux pH correspondant aux différents β par addition de HC1 0,5N).
7mg de griseofulvine en poudre sont ajoutés à chaque échantillon. On laisse soniquer pendant 5 minutes et on filtre les mélanges sur filtre millipore (0,45 micromètre). Les filtrats limpides sont conservés de la même façon que pour les exemples 1 et 2. Le dosage de la griseofulvine solubilisée est effectué dans le milieu solvant eau-acétonitrile : 20/80, V/V. On prélève dans chaque essai, 1ml de filtrat qui est dilué à 5ml par de l'acétonitrile. Les ellipticités des différentes solutions sont mesurées à λ = 294nm et comparées à des solutions standard de griseofulvine dissoutes dans le même milieu solvant.
Le tableau suivant donne les quantités de griseofulvine dissoute (en microgrammes par ml de filtrat) en fonction du pH et du degré de protonation β . La solubilité de la griseofulvine dans l'eau est de l'ordre de 13 à 15 microgrammes par ml.

[2] = Solubility of the hydrophobic drug in water without polymer
[3] = Solubilisation of progestérone in aqueous Q-P(TDAE)19 microglobule solution, assayed by circular dichroism at 285 nm after filtration; format: physicochemical; conditions: for progestérone (microgrammes/ml): per ml of filtrate; for quantité de progestérone dissoute: Example 3, Q-P(TDAE)19 TN = 0,125 N, pH = 7,7, β = 0,06
Protocol: A) Les essais sont effectués à partir d'une solution basique de poly(diéthylaminométhyl thiiranne) quaternisée à 19% Q-P(TDAE)19 de formule [drawing 4] X étant un anion (par exemple un anion halogénure tel que chlorure ou bromure), à une concentration TN = (2,5+ 0,1)x 10^-2 N (polymère = 3,77mg de polymère sous forme basique par ml de solution).
Cette solution est obtenue de la façon suivante: • 270mg de chlorhydrate de Q-P(TDAE)19 sont dissous dans 10ml d'eau distillée, puis passés sur une résine échangeuse d'anions (BIO-RAD AG 1-x4-20-50 mesh-) sous forme OH et récupérés dans une fiole jaugée de 50ml.
Des échantillons contenant 5m1 de cette solution basique sont ajustés, par addition de HC1 0,5N, aux pH correspondant à différentes valeurs du degré de protonation apparent de la fonction amine tertiaire résiduelle dans le domaine 0 < β< 1. On ajoute 5mg de progestérone en poudre à chaque échantillon et les mélanges sont soit soniqués pendant 5 minutes soit agités pendant 48 heures.
Après dissolution, chaque échantillon est filtré sur filtre millipore (0,45 micromètres). Les filtrats sont clairs et limpides. Le système "véhicule-drogue" peut être conservé de deux façons différentes: • - en solution, pendant quelques mois au réfrigérateur • - sous forme solide, en lyophilisant les filtrats et en les conservant sous vide. Le filtrat lyophilisé se solubilise rapidement en solution aqueuse.
Le dosage de la progestérone solubilisée ne peut être fait que par extraction de cette dernière des microémulsions. Cette extraction est obtenue par éclatement des véhicules globulaires dans un mélange filtrat-éthanol absolu dans le rapport V/V : 20/80. 1ml de chaque filtrat est dilué à 5ml par addition d'éthanol. Les différents filtrats présentent dans la région 350-250nm des bandes dichrolques caractéristiques de la progestérone. Le signal de dichroisme circulaire à λ = 285nm est utilisable pour évaluer la quantité de progestérone présente dans chaque filtrat par comparaison avec les ellipticités de solutions standard de progestérone dissoute dans le même milieu solvant.
Le tableau suivant donne les quantités de progestérone solubilisée (en microgramme par ml de filtrat) en fonction du pH et du degré de protonation β pour chaque essai.
On opère comme à l'exemple 1 mais les essais sont effectués à partir d'une concentration TN = 0,15N de Q-P(TDAE)19 sous forme basique. Des échantillons contenant 2ml de cette solution sont ajustés à différents β par addition de HC1 N et additionnés de 5mg de progestérone. Après sonication pendant 5 minutes, les mélanges sont filtrés sur filtre millipore (0,45 micromètre). Le dosage de la progestérone solubilisée est fait comme précédemment. 0,2ml de chaque filtrat sont dilués à 2ml par de l'éthanol absolu. Les ellipticités sont mesurées â λ = 285nm et comparées aux solutions standard de progestérone effectuées dans les mêmes conditions.
Le tableau suivant donne les quantités de progestérone solubilisée (en microgrammes par ml de filtrat) en fonction du pH et du degré de protonation S.
Deux essais sont réalisés dans les mêmes conditions: concentration en polymère, β et pH identiques mais on ajoute au deuxième essai, du chlorure de sodium de telle façon que la solution soit à 0,9X en NaCl.
Deux échantillons contenant 2m1 de solution basique de Q-P(TDAE)19 (TN = 0,125 N) sont ajustés à pH = 7,7 et à β= 0,06 par addition de 0,06ml de HCl N. Dans le deuxième échantillon, on ajoute 18mg de NaCl. 5mg de progestérone sont additionnés à chaque échantillon. Les mélanges sont soniqués pendant 5 minutes. Le protocole de filtration et de dosage de la progestérone solubilisée est le même qu'à l'exemple 2.

COC1=CC(=O)C[C@@H](C)[C@]12Oc1c(Cl)c(OC)cc(OC)c1C2=O [griseofulvine]
griseofulvine (microgrammes/ml) ([1]; essai 1, pH 7,6, β 0,02): 47 microgrammes/ml | griseofulvine (microgrammes/ml) ([1]; essai 2, pH 7,08, β 0,093): 43 microgrammes/ml | griseofulvine (microgrammes/ml) ([1]; essai 3, pH 7,0, β 0,185): 36 microgrammes/ml | griseofulvine (microgrammes/ml) ([1]; essai 4, pH 6,95, β 0,26): 30 microgrammes/ml | griseofulvine (microgrammes/ml) ([1]; essai 5, pH 6,95, β 0,32): 26 microgrammes/ml | griseofulvine (microgrammes/ml) ([1]; essai 6, pH 6,95, β 0,42): 22 microgrammes/ml | griseofulvine (microgrammes/ml) ([1]; essai 7, pH 6,83, β 0,51): 18 microgrammes/ml | griseofulvine (microgrammes/ml) ([1]; essai 8, pH 6,67, β 0,673): 15 microgrammes/ml | griseofulvine (microgrammes/ml) ([1]; essai 9, pH 6,20, β 0,89): 15 microgrammes/ml | griseofulvine (microgrammes/ml) ([1]; essai 10, pH 4,5 à 4,6, β 1): 15 microgrammes/ml | solubility [2]: 13 to 15 µg/mL (≈ 36.9 to 42.5 µM)

progestérone
solubilité dans l'eau ([2]; no polymer, approximate values, no source stated): 11 à 12 microgrammes par ml | progestérone (microgrammes/ml) ([3]; Example 1, Q-P(TDAE)19 TN = 2,5 x 10^-2 N, essai 1, pH 7,5, β 0,07): 75 microgrammes/ml | progestérone (microgrammes/ml) ([3]; Example 1, Q-P(TDAE)19 TN = 2,5 x 10^-2 N, essai 2, pH 6,97, β 0,135): 62-64 microgrammes/ml | progestérone (microgrammes/ml) ([3]; Example 1, Q-P(TDAE)19 TN = 2,5 x 10^-2 N, essai 3, pH 6,95, β 0,20): 48-50 microgrammes/ml | progestérone (microgrammes/ml) ([3]; Example 1, Q-P(TDAE)19 TN = 2,5 x 10^-2 N, essai 4, pH 6,95, β 0,26): 38 microgrammes/ml | progestérone (microgrammes/ml) ([3]; Example 1, Q-P(TDAE)19 TN = 2,5 x 10^-2 N, essai 5, pH 6,95, β 0,38): 26 microgrammes/ml | progestérone (microgrammes/ml) ([3]; Example 1, Q-P(TDAE)19 TN = 2,5 x 10^-2 N, essai 6, pH 6,80, β 0,63): 14-16 microgrammes/ml | progestérone (microgrammes/ml) ([3]; Example 1, Q-P(TDAE)19 TN = 2,5 x 10^-2 N, essai 7, pH 6,55, β 0,75): 11-12 microgrammes/ml | progestérone (microgrammes/ml) ([3]; Example 1, Q-P(TDAE)19 TN = 2,5 x 10^-2 N, essai 8, pH 6,15, β 0,88): 11-12 microgrammes/ml | progestérone (microgrammes/ml) ([3]; Example 2, Q-P(TDAE)19 TN = 0,15N, essai 1, pH 7,50, β 0,13): 315 microgrammes/ml | progestérone (microgrammes/ml) ([3]; Example 2, Q-P(TDAE)19 TN = 0,15N, essai 2, pH 7,50, β 0,17): 300 microgrammes/ml | progestérone (microgrammes/ml) ([3]; Example 2, Q-P(TDAE)19 TN = 0,15N, essai 3, pH 7,50, β 0,26): 225 microgrammes/ml | progestérone (microgrammes/ml) ([3]; Example 2, Q-P(TDAE)19 TN = 0,15N, essai 4, pH 7,40, β 0,47): 185-190 microgrammes/ml | progestérone (microgrammes/ml) ([3]; Example 2, Q-P(TDAE)19 TN = 0,15N, essai 5, pH 7,36, β 0,51): 80 microgrammes/ml | progestérone (microgrammes/ml) ([3]; Example 2, Q-P(TDAE)19 TN = 0,15N, essai 6, pH 7,25, β 0,58): 70 microgrammes/ml | progestérone (microgrammes/ml) ([3]; Example 2, Q-P(TDAE)19 TN = 0,15N, essai 7, pH 4,8, β 0,98): 10 à 12 microgrammes/ml | quantité de progestérone dissoute ([3]; with NaCl, solution at 0,9X en NaCl (18mg in 2ml)): 375 microgrammes par ml de filtrat | quantité de progestérone dissoute ([3]; without NaCl): 375 microgrammes par ml de filtrat
